“Also recorded” adds a separate entry of the source.
Legend:
[1] = biological target: T1, trypsin from bovine pancreas (Bos taurus, UniProt P00760); assay: trypsin autolysis followed by fluorescence spectroscopy (ratio R versus time, FIG. 2); format: biochemical; settings: 0.1 M TRIS buffer pH 7.5, compared with water
T1 construct: purchased Sigma; host or cells: bovine pancreas
T1 sequence (P00760 24-246): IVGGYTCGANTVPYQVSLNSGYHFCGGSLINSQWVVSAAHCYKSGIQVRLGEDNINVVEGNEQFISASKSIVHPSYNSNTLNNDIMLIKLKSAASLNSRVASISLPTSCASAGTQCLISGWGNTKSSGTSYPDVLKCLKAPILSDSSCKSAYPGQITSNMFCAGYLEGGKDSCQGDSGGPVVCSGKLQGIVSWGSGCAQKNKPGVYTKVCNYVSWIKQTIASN
From the text: (§1) The process of serine protease (e.g., trypsin) autolysis can be followed by using fluorescence spectroscopy. […] Consequently, the autolysis of trypsin and subsequent unfolding is accompanied by spectral changes that can be detected by obtaining fluorescence spectra at various time points after preparing a fresh solution of trypsin.
(§2) The iso-emissive points (fluorescence intensity independent of time) at 305 nm and 360 nm are typical of a situation where one fluorescent component (native protein) is the source of the other fluorescent component(s) (denatured protein and cleaved fragments). Applicants quantified the change in the trypsin spectrum by taking a ratio, R, of the area between 320 nm and 330 nm and the area between 380 nm and 400 nm: [formula]
(§3) The numerator represents the relative amount of native protein in the sample and the denominator represents relative amount of denatured protein and cleaved fragments. R therefore is a measure of how far the autolysis process has progressed.
(§4) Protocol—Fresh solutions of trypsin (2.5 mg/ml) were prepared by mixing the appropriate amount of solid trypsin from bovine pancreas (Sigma) with appropriate amounts of buffer solution (1M, pH 7.5; VWR), water, and protein stabilizing compound (pyrollidone carboxylic acid—Sigma Ultrapure; trimethylamine N-oxide—Fluka Purum; glycerin—J.T. Baker; 1-Propanaminium, 2,3-dihydroxy-N,N,N-trimethyl-, chloride—synthesized and purified in house), and/or protein destabilizing compound (urea—J.T. Baker Ultrapure Bioreagent); sodium dodecyl sulfate—ICN Ultrapure). All chemicals were used as supplied. Within minutes of dissolving the solid trypsin the solution was transferred into a quartz fluorescence cuvette and placed inside a Perkin Elmer LS 50 B fluorescence spectrometer. Fluorescence spectra were subsequently measured, either every 5 minutes or every 10 minutes. The excitation wavelength was 280 nm.
A seen in FIG. 2, applicants plotted trypsin autolysis as followed by fluorescence spectroscopy in various media with 0.1 M TRIS buffer pH 7.5. These media include: 0.5 M PCA, i.e., pyrollidone carboxylic acid (closed triangles); 1 M TMAO (closed diamonds); 1 M glycerol (closed circles); 1M 1-propanaminium, 2,3-dihydroxy-N,N,N-trimethyl-,chloride (crosses); water (closed squares); 1 M urea (open triangles); and 0.5 mM SDS, i.e., sodium dodecyl sulphate (open circles).
The ability of various compounds or combinations of compounds to increase or depress the rate of trypsin autolysis can be compared by plotting R as a function of time as is shown, for example, in FIG. 2.

[2] = biological target: T1, trypsin from bovine pancreas; assay: trypsin autolysis followed by fluorescence spectroscopy in the presence of the denaturant SDS (FIG. 3); format: biochemical
From the text: as §1, §2, §3, §4
For reference purposes, also shown are autolysis traces in the presence of 0.5 mM SDS without any protein stabilizer (open squares) and without any SDS or protein stabilizer (closed squares).

[3] = 1.0 M stabilizer plus 0.5 mM SDS

| SMILES | rate of trypsin autolysis (R as a function of time) ([1]; […] compound) | rate of trypsin autolysis in the presence of SDS [2, 3] | further results |
| --- | --- | --- | --- |
| OCC(O)CO [glycerol] | significantly reduces the rate of trypsin autolysis | able to “protect” proteins against a denaturing force |  |
| C[N+](C)(C)[O-] [TMAO, trimethylamine N-oxide] | exceeds glycerol in its ability to stabilize trypsin against autolysis | able to “protect” proteins against a denaturing force; also recorded: still slower than in the absence of both SDS and a protein stabilizer |  |
| NC(N)=O [urea] | significant increase in the rate of trypsin hydrolysis |  |  |
| O=C1CC[C@@H](C(=O)O)N1 [PCA, pyrollidone carboxylic acid] |  |  | rate of trypsin autolysis (R as a function of time) ([1]; 0.5 M compound): virtual absence of autolysis; also recorded: by far the strongest ability of any of the compounds tested to stabilize trypsin; rate of trypsin autolysis in the presence of SDS ([2]; 0.5 M stabilizer plus 0.5 mM SDS): able to “protect” proteins against a denaturing force; also recorded: still slower than in the absence of both SDS and a protein stabilizer |
| CCCCCCCCCCCCOS(=O)(=O)[O-].[Na+] [SDS, sodium dodecyl sulfate] |  |  | rate of trypsin autolysis (R as a function of time) ([1]; 0.5 mM compound): significant increase in the rate of trypsin hydrolysis |
| C[N+](C)(C)CC(O)CO.[Cl-] (stereo not drawn) [1-Propanaminium, 2,3-dihydroxy-N,N,N-trimethyl-, chloride] | exceed that of both glycerol and TMAO |  |  |

Reference: patent US20070092925A1, “Method of treating skin by delivering specific protein stabilizers/protectors to skin proteins and methods of selecting said stabilizers” (Conopco, Inc., d/b/a UNILEVER, priority 2005, published 2007)
